Experimental findings from BindingDB's records for doi:10.1021/jm00174a017 (Alter, 1991) are described below.

The test can be described thus: Tested for inhibition of [3H]PAF binding to rabbit Platelet activating factor receptor.

Consider `CCOC(=O)C1C(C)=NC(C)=C(C(=O)OCCSCC)C1C` (stereo not given), for which the affinity, expressed as Ki, was 1000 nM. In turn, `COC(=O)C1C(C)=NC(C)=C(C(=O)OCCSc2ccccc2)C1C` (stereo not given) came in with a Ki of 15 nM. The molecule `COCCOC(=O)C1C(C)=NC(C)=C(C(=O)OCCSC)C1C` (stereo not given) returned a Ki of 4410 nM. To `CCOC(=O)C1C(C)=NC(C)=C(C(=O)OCCSc2ccccc2)C1C` (stereo not given) belongs 69 nM. With `CCOC(=O)C1C(C)=NC(C)=C(C(=O)OCCSC)C1C` (stereo not given), the affinity, expressed as Ki, was 1040 nM. Regarding `CCSCCOC(=O)C1=C(C)N=C(C)C(C(=O)OC)C1C` (stereo not given), the affinity corresponds to a Ki of 505 nM. `CC1=NC(C)=C(C(=O)OCCSc2ccccc2)C(C)C1C(=O)OCC1CCCO1` (stereo not given) came in with a Ki of 2090 nM.

`CCOC(=O)C1C(C)=NC(C)=C(C(=O)OCCSC)C1CC` (stereo not given) registered an inhibition constant (Ki) of 1010 nM.

In turn, `CC1=NC(C)=C(C(=O)OCCSc2ccccc2)C(C)C1C(=O)OC(C)C` (stereo not given) registered a Ki of 913 nM. Turning to `COC(=O)C1C(C)=NC(C)=C(C(=O)OCCSC)C1C` (stereo not given), the Ki was 603 nM.

In general, Ki refers to the dissociation constant of the complex between target and ligand, obtained from inhibition or displacement.
